Laboratory results taken from article PMC12627007, “HIV nucleocapsid proteins as targets for novel 1,2-benzisothiazol-3(2H)-one benzenesulfonamides: synthesis and antiretroviral activity” (Frontiers in Microbiology, 2025).

Assays:
Type in all cases: cell-based
[1] = Cytotoxicity in mock-infected MT-4 cells (MTT method); conditions: human
Method: The activity of the test compounds against the replication of HIV-1 wt and mutant strains (N119, A17, EFV^R, AZT^R, MDR, SAQ^R) and HIV-2 wt in acutely infected cells was based on the inhibition of virus-induced cytopathogenicity in MT-4 and C8166 cells, respectively. Briefly, 50 μL of culture medium containing 1 × 10^4 cells was added to each well of flat-bottom microtitre trays containing 50 μL of culture medium with or without different serial concentrations of test compounds. Then, 20 μL of an HIV suspension (containing the appropriate amount of CCID50 required to cause complete cytopathogenicity on day 4, final multiplicity of infection [m.o.i.] 0.01) was added. After incubation at 37 °C, cell viability was determined using the […] (MTT) method ([Pauwels et al., 1988]). The cytotoxicity of the test compounds was evaluated in parallel with their antiviral activity through the viability of mock-infected, treated cells, as monitored by the MTT method and described elsewhere ([Morellet et al., 1994]).

HIV-1 IIIB strain = experiment: microbe, parasite or virus in culture; conditions: for EC50: Human immunodeficiency virus 1, IIIB, MT4, read-out: EC50 HIV-1; for Selectivity Index (SI = CC50/EC50) HIV-1: IIIB strain, in round brackets
Method: (§1) HIV-1IIIB and HIV-2 CBL-20 strains were obtained from the supernatants of persistently infected H9/IIIB and CEM cells, respectively. HIV-1 and HIV-2 stock solutions had titres of 4.5 × 10^7 and 1.4 × 10^6 50% cell culture infectious doses (CCID50)/ml, respectively. […] The K103R + V179D + P225H mutant (EFVR) was derived from an IIIB strain passaged in MT-4 cells in the presence of Efavirenz (up to 2 μM). N119, A17 and EFV^R stock solutions had titres of 1.2 × 10^8, 2.1 × 10^7, and 4.0 × 10^7 CCID50/ml, respectively.
(§2) The activity of the test compounds against the replication of HIV-1 wt and mutant strains (N119, A17, EFV^R, AZT^R, MDR, SAQ^R) and HIV-2 wt in acutely infected cells was based on the inhibition of virus-induced cytopathogenicity in MT-4 and C8166 cells, respectively. Briefly, 50 μL of culture medium containing 1 × 10^4 cells was added to each well of flat-bottom microtitre trays containing 50 μL of culture medium with or without different serial concentrations of test compounds. Then, 20 μL of an HIV suspension (containing the appropriate amount of CCID50 required to cause complete cytopathogenicity on day 4, final multiplicity of infection [m.o.i.] 0.01) was added.

HIV-1 N119 (Y181C) = experiment: Inhibition of virus-induced cytopathogenicity in MT-4 cells, NNRTI-resistant mutant N119; conditions: for EC50: Human immunodeficiency virus 1, MT4, read-out: EC50 N119; for Selectivity Index (SI = CC50/EC50) N119: in round brackets
Method: as §1, §2

[2] = system: HIV-1 A17 (K103N + Y181C); experiment: Inhibition of virus-induced cytopathogenicity in MT-4 cells, NNRTI-resistant mutant A17; conditions: for EC50: Human immunodeficiency virus 1, MT4, read-out: EC50 A17; for Selectivity Index (SI = CC50/EC50) A17: in round brackets
Method: as §1, §2

[3] = system: HIV-1 EFVR (K103R + V179D + P225H); experiment: Inhibition of virus-induced cytopathogenicity in MT-4 cells, NNRTI-resistant mutant EFVR; conditions: for EC50: Human immunodeficiency virus 1, MT4, read-out: EC50 EFVR; for Selectivity Index (SI = CC50/EC50) EFVR: in round brackets
Method: as §1, §2

[4] = system: HIV-1 AZTR (67N, 70R, 215F, 219Q); experiment: Inhibition of virus-induced cytopathogenicity in MT-4 cells, NRTI-resistant mutant AZTR; conditions: for EC50: Human immunodeficiency virus 1, MT4, read-out: EC50 AZTR; for Selectivity Index (SI = CC50/EC50) AZTR: in round brackets
Method: as §1, §2

[5] = system: HIV-1 MDR (74V, 41L, 106A, 215Y); experiment: Inhibition of virus-induced cytopathogenicity in MT-4 cells, NRTI-resistant mutant MDR; conditions: for EC50: Human immunodeficiency virus 1, MT4, read-out: EC50 MDR; for Selectivity Index (SI = CC50/EC50) MDR: in round brackets
Method: as §1, §2

[6] = system: HIV-1 SAQR (L10F, G48V, L90M); experiment: Inhibition of virus-induced cytopathogenicity in MT-4 cells, PRI-resistant mutant SAQR; conditions: for EC50: Human immunodeficiency virus 1, MT4, read-out: EC50 SAQR; for Selectivity Index (SI = CC50/EC50) SAQR: in round brackets
Method: as §1, §2

Row | SMILES | CC50 at 4 days [1] | EC50 (HIV-1 IIIB strain) | Selectivity Index (SI = CC50/EC50) HIV-1 (HIV-1 IIIB strain) | EC50 (HIV-1 N119 (Y181C)) | Selectivity Index (SI = CC50/EC50) N119 (HIV-1 N119 (Y181C)) | EC50 [2] | Selectivity Index (SI = CC50/EC50) A17 [2] | EC50 [3] | Selectivity Index (SI = CC50/EC50) EFVR [3] | EC50 [4] | Selectivity Index (SI = CC50/EC50) AZTR [4] | EC50 [5] | Selectivity Index (SI = CC50/EC50) MDR [5] | EC50 [6] | Selectivity Index (SI = CC50/EC50) SAQR [6] | CC50 at 4 days ([1]; MT-4, MTT method)
1 | COc1ccc(S(=O)(=O)Nn2sc3ccccc3c2=O)cc1 [Compound 9, 4-Methoxy-N-(3-oxo-1,2-benzisothiazol-2(3H)-yl)benzenesulfonamide] | 56 ± 0.1 µM | 8 ± 2 µM | 7 | 6 ± 0.5 µM | 9 | 8 ± 1 µM | 7 | 6 ± 0.7 µM | 9 | 5 ± 1 µM | 11 | 6 ± 0.7 µM | 9 | 7 ± 1 µM | 8 | –
2 | O=c1c2ccccc2sn1NS(=O)(=O)c1cccc(Cl)c1 [Compound 14, 3-Chloro-N-(3-oxo-1,2-benzisothiazol-2(3H)-yl)benzenesulfonamide] | 40 ± 2 µM | 5 ± 1 µM | 8 | 7 ± 1.4 µM | 5 | 3 ± 1 µM | – | 7 ± 1 µM | – | 6 ± 0.7 µM | 6 | 6 ± 1 µM | 6 | 4 ± 0.7 µM | 10 | –
3 | O=c1c2cc(Cl)ccc2sn1NS(=O)(=O)c1ccccc1Cl [Compound 18, 2-Chloro-N-(5-chloro-3-oxo-1,2-benzisothiazol-2(3H)-yl)benzenesulfonamide] | > 100 µM | 16 ± 3 µM | > 6 | 14 ± 1 µM | > 5 | 20 ± 4 µM | > 5 | 7 ± 2 µM | > 14 | 12 ± 2 µM | > 8 | 16 ± 2 µM | > 6 | 15 ± 3 µM | > 6 | –
4 | O=c1c2ccccc2sn1NS(=O)(=O)c1ccccc1F [Compound 10, 2-Fluoro-N-(3-oxo-1,2-benzisothiazol-2(3H)-yl)benzenesulfonamide] | > 100 µM | 7 ± 0.8 µM | > 14 | 6 ± 3 µM | > 16 | 7 ± 0.7 µM | > 14 | 5 ± 2 µM | > 20 | 6 ± 0.5 µM | > 16 | 5 ± 0.5 µM | > 20 | 7 ± 1 µM | > 14 | –
5 | O=c1c2ccccc2sn1N(S(=O)(=O)c1ccc([N+](=O)[O-])cc1)S(=O)(=O)c1ccc([N+](=O)[O-])cc1 [Compound 22, 4-Nitro-N-[(4-nitrophenyl)sulfonyl]-N-(3-oxo-1,2-benzisothiazol-2(3H)-yl)benzenesulfonamide] | – | 21 µM | > 4 | 20 µM | > 5 | 20 µM | > 5 | 21 µM | > 4 | 24 µM | > 4 | 25 µM | > 4 | 23 µM | > 4 | > 100 µM
6 | Cc1ccc(S(=O)(=O)N(n2sc3ccccc3c2=O)S(=O)(=O)c2ccc(C)cc2)cc1 [Compound 21, 4-Methyl-N-[(4-methylphenyl)sulfonyl]-N-(3-oxo-1,2-benzisothiazol-2(3H)-yl)benzenesulfonamide] | > 100 µM | 76 µM | – | 44 µM | – | 58 µM | – | 70 µM | – | 70 µM | – | 63 µM | – | 63 µM | – | –
